Measured values taken from ChEMBL document CHEMBL3301361, “Experimental in vitro DMPK and physicochemical data on a set of publicly disclosed compounds”.
≈ marks a conversion by molar mass, not a printed value.

Experiments:
physchem [1] = assay: physchem
physchem [2] = assay: physchem; remark: listed apart in the source
in vitro [3] = conditions: human
in vitro [4] = conditions: human, plasma, PPB
physchem [5] = conditions: octan-1-ol/water, pH 7.4, LogD7.4
in vitro [6] = conditions: hepatocytes
in vitro [7] = conditions: SD, HW or BN, rat, plasma
in vitro [8] = conditions: human, hepatocytes
physchem [9] = conditions: pH 7.4 buffer

For `Nc1nc(-c2ccccc2)cc(=O)[nH]1`, the pKa (physchem [1]) was 9.05 and the pKa (physchem [2]) was 3.45.
Compound `NCC1CCC(C(=O)O)CC1` (stereo not given) has a pKa (physchem [1]) of 4.9 and a pKa (physchem [2]) of 10.
In the case of `NCC1Cc2c1ccc(O)c2O` (stereo not given), the pKa (physchem [1]) is reported as 10.4 and the pKa (physchem [2]) is reported as 8.5.
In the case of `CCCN(CCC)CCc1ccc(O)c(NC(C)=O)c1`, the pKa (physchem [1]) is reported as 8.75, the microsomal CLint (in vitro [3]; liver microsomes) is reported as 36 µL/min/mg and the pKa (physchem [2]) is reported as 10.8.
`Nc1nc2nc(SCc3ccccc3)[nH]c(=O)c2s1` showed a pKa (physchem [1]) of 7.1 and a microsomal CLint (in vitro [3]; liver microsomes) of less than 3 µL/min/mg.
Compound `Cc1c(O)nc(N)nc1-c1ccccc1` has a pKa (physchem [1]) of 9.61 and a pKa (physchem [2]) of 4.37.
In the case of `CS(=O)(=O)NC(=O)CCCc1c(-c2ccc(F)cc2)[nH]c2ccc(C#N)cc12`, the fraction unbound at 5 h (in vitro [4]) is reported as 0.013, the pKa (physchem [1]) is reported as 5.2 and the microsomal CLint (in vitro [3]; microsomes) is reported as less than 3 µL/min/mg. It also gave a logD (physchem [5]) of 1.5 and a hepatocyte CLint (in vitro [6]) of 14.3 µL/min/1e6 cells.
In the case of `O=C(NCC12CC3CC(CC(C3)C1)C2)c1cc(-n2ncc(=O)[nH]c2=O)ccc1Cl`, the pKa (physchem [1]) is reported as 6.2, the fraction unbound at 5 h (in vitro [7]) is reported as 0.0171 and the microsomal CLint (in vitro [3]; liver microsomes) is reported as 83.8 µL/min/mg. It also gave a hepatocyte CLint (in vitro [8]) of 37 µL/min/1e6 cells, a logD (physchem [5]) of 2.1 and a hepatocyte CLint (in vitro [6]) of 15.3 µL/min/1e6 cells.
`N#Cc1c(O)nc(N)nc1-c1ccccc1` gave a fraction unbound at 5 h (in vitro [4]) of 0.0366, a pKa (physchem [1]) of 6.52 and a fraction unbound at 5 h (in vitro [7]) of 0.0366.
For `O=C(O)c1ccc(-c2ccc(Cl)c(C(=O)NCC34CC5CC(CC(C5)C3)C4)c2)cc1`, the fraction unbound at 5 h (in vitro [4]) was 0.0077, the pKa (physchem [1]) was 4.1 and the fraction unbound at 5 h (in vitro [7]) was 0.0074. For the same compound, the logD (physchem [5]) was 2.48.
With `CCOC(=O)[C@H](CCc1ccccc1)N[C@@H](C)C(=O)N1CCC[C@H]1C(=O)O` the pKa (physchem [1]) was 3.1 and the pKa (physchem [2]) was 6.4.
Work on `CCCN(CCC)C1CCc2c(O)cccc2C1` (stereo not given) [5-OH-DPAT] yielded a pKa (physchem [1]) of 9.25 and a pKa (physchem [2]) of 10.8.
`Nc1ncnc2c1ncn2CCOCP(=O)(O)O` [ADEFOVIR] gave a pKa (physchem [1]) of 7.66 and a pKa (physchem [2]) of 4.34.
Work on `NC1CCN(c2c(F)cc3c(=O)c(C(=O)O)cn(C4CC4)c3c2Cl)C1` (stereo not given) [CLINAFLOXACIN] yielded a pKa (physchem [1]) of 5.77 and a pKa (physchem [2]) of 9.1.
In the case of `CNCCc1ccc(O)c(O)c1` [DEOXIEPINEPHRINE], the pKa (physchem [1]) is reported as 8.97 and the pKa (physchem [2]) is reported as 10.9.
For `CCn1cc(C(=O)O)c(=O)c2cc(F)c(N3CCNCC3)nc21` [ENOXACIN], the fraction unbound at 5 h (in vitro [4]) was 0.656, the pKa (physchem [1]) was 6.2 and the logD (physchem [5]) was -0.83. It also gave a pKa (physchem [2]) of 8.76.
Compound `CCc1cccc2c3c([nH]c12)C(CC)(CC(=O)O)OCC3` (stereo not given) [ETODOLAC] has a pKa (physchem [1]) of 4.15 and a hepatocyte CLint (in vitro [8]) of 12.9 µL/min/1e6 cells.
For `CN1CCN(c2c(F)cc3c(=O)c(C(=O)O)cn(CCF)c3c2F)CC1` [FLEROXACIN], the pKa (physchem [1]) was 5.6 and the pKa (physchem [2]) was 7.91.
With `COc1c(N2CCNC(C)C2)c(F)cc2c(=O)c(C(=O)O)cn(C3CC3)c12` (stereo not given) [GATIFLOXACIN] the pKa (physchem [1]) was 6.05, the logD (physchem [5]) was -0.82 and the pKa (physchem [2]) was 9.18.
Compound `CO/N=C1\CN(c2nc3c(cc2F)c(=O)c(C(=O)O)cn3C2CC2)CC1CN` (stereo not given) [GEMIFLOXACIN] has a pKa (physchem [1]) of 6.36 and a pKa (physchem [2]) of 8.6.
For `C[C@@H](C(=O)NS(C)(=O)=O)c1ccc(OS(=O)(=O)C(F)(F)F)cc1` [LADARIXIN], the pKa (physchem [1]) was 3.1, the microsomal CLint (in vitro [3]; liver microsomes) was less than 3 µL/min/mg and the hepatocyte CLint (in vitro [6]) was less than 3 µL/min/1e6 cells.
Compound `CCn1cc(C(=O)O)c(=O)c2cc(F)c(N3CCNC(C)C3)c(F)c21` (stereo not given) [LOMEFLOXACIN] has a pKa (physchem [1]) of 5.82, a logD (physchem [5]) of -1.1 and a pKa (physchem [2]) of 8.87.
`COc1c(C)c2c(c(O)c1C/C=C(\C)CCC(=O)OCCN1CCOCC1)C(=O)OC2` [MYCOPHENOLATE MOFETIL] gave a pKa (physchem [1]) of 8.01, a solubility thermodynamic (physchem [9]) of 87.1 µM (≈ 37.8 µg/mL) and a logD (physchem [5]) of 2.26. It also gave a pKa (physchem [2]) of 6.06.
`CCCc1nc(C(C)(C)O)c(C(=O)OCc2oc(=O)oc2C)n1Cc1ccc(-c2ccccc2-c2nnn[nH]2)cc1` [OLMESARTAN MEDOXOMIL] showed a pKa (physchem [1]) of 4.29 and a pKa (physchem [2]) of 6.05.
Work on `O=C(O)CCc1nc(-c2ccccc2)c(-c2ccccc2)o1` [OXAPROZIN] yielded a fraction unbound at 5 h (in vitro [4]) of 0.0005, a pKa (physchem [1]) of 3.87 and a fraction unbound at 5 h (in vitro [7]) of 0.0024.
For `Nc1nc2c(ncn2CCC(CO)CO)c(=O)[nH]1` [PENCICLOVIR], the pKa (physchem [1]) was 9.48 and the pKa (physchem [2]) was 2.97.
`CC(C)(C)c1cc(NC(=O)NCc2ccccc2Sc2ccc3nnc(-c4ccccc4SCCO)n3c2)n(-c2ccc(O)c(Cl)c2)n1` [PF-03715455] showed a pKa (physchem [1]) of 7.17, a fraction unbound at 5 h (in vitro [7]) of 0.0013 and a microsomal CLint (in vitro [3]; liver microsomes) greater than 150 µL/min/mg. The hepatocyte CLint (in vitro [8]) was 25.1 µL/min/1e6 cells and the hepatocyte CLint (in vitro [6]) was 70.8 µL/min/1e6 cells.
In the case of `COC(=O)c1cc2nc([S+]([O-])Cc3ncccc3C)[nH]c2cc1C` (stereo not given) [PICOPRAZOLE], the pKa (physchem [1]) is reported as 8.1 and the pKa (physchem [2]) is reported as 3.5.
For `CCCN(CCC)CCc1ccc(O)c2c1CC(=O)N2` [SKF-89124A], the pKa (physchem [1]) was 8.35 and the pKa (physchem [2]) was 10.2.
Work on `Cc1nnc(NS(=O)(=O)c2ccc(N)cc2)s1` [SULFAMETHIZOLE] yielded a fraction unbound at 5 h (in vitro [4]) of 0.0647, a pKa (physchem [1]) of 5.4 and a logD (physchem [5]) of -1.33.
Compound `[O-][S+](Cc1ccccn1)c1nc2ccccc2[nH]1` (stereo not given) [TIMOPRAZOLE] has a pKa (physchem [1]) of 8.8 and a pKa (physchem [2]) of 3.1.
